# Data published in article PMC9856672, “SGC-CAMKK2-1: A Chemical Probe for CAMKK2” (Cells, 2023).
# How the values were obtained:
# KIT(V559D) = target: T1, KIT(V559D) (Homo sapiens, UniProt P10721, V559D); experiment: KINOMEscan 1 μM, KIT(V559D); assay type: binding; settings: 1000 nM; Entrez KIT; read-out: Percent Control
# T1 construct: purchased Eurofins DiscoverX KINOMEscan
# Source text: (§1) Supplement cells-12-00287-s001.zip/File S2. KinomeScan data for the CAMKK2 probe and negative control.xlsx, sheet "SGC-CAMKK2-1" | column: Percent Control
# DRAK1 = target: T2, DRAK1 (Homo sapiens, UniProt Q9UEE5); experiment: KINOMEscan 1 μM, DRAK1; assay type: binding; settings: 1000 nM; Entrez STK17A; read-out: Percent Control
# T2 construct: purchased Eurofins DiscoverX KINOMEscan
# Source text: as §1
# EPHA1 = target: T3, EPHA1 (Homo sapiens, UniProt P21709); experiment: KINOMEscan 1 μM, EPHA1; assay type: binding; settings: 1000 nM; Entrez EPHA1; read-out: Percent Control
# T3 construct: purchased Eurofins DiscoverX KINOMEscan
# Source text: as §1
# NEK4 = target: T4, NEK4 (Homo sapiens, UniProt P51957); experiment: KINOMEscan 1 μM, NEK4; assay type: binding; settings: 1000 nM; Entrez NEK4; read-out: Percent Control
# T4 construct: purchased Eurofins DiscoverX KINOMEscan
# Source text: as §1
# AKT3 = target: T5, AKT3 (Homo sapiens, UniProt Q9Y243); experiment: KINOMEscan 1 μM, AKT3; assay type: binding; settings: 1000 nM; Entrez AKT3; read-out: Percent Control
# T5 construct: purchased Eurofins DiscoverX KINOMEscan
# Source text: as §1
# KIT(V559D,T670I) = target: T6, KIT(V559D,T670I) (Homo sapiens, UniProt P10721, T670I/V559D); experiment: KINOMEscan 1 μM, KIT(V559D,T670I); assay type: binding; settings: 1000 nM; Entrez KIT; read-out: Percent Control
# T6 construct: purchased Eurofins DiscoverX KINOMEscan
# Source text: as §1
# AKT2 = target: T7, AKT2 (Homo sapiens, UniProt P31751); experiment: KINOMEscan 1 μM, AKT2; assay type: binding; settings: 1000 nM; Entrez AKT2; read-out: Percent Control
# T7 construct: purchased Eurofins DiscoverX KINOMEscan
# Source text: as §1
# ASK2 = target: T8, ASK2 (Homo sapiens, UniProt O95382); experiment: KINOMEscan 1 μM, ASK2; assay type: binding; settings: 1000 nM; Entrez MAP3K6; read-out: Percent Control
# T8 construct: purchased Eurofins DiscoverX KINOMEscan
# Source text: as §1
# [1] = target: T9, RSK3(Kin.Dom.1-N-terminal) (Homo sapiens, UniProt Q15349); experiment: KINOMEscan 1 μM, RSK3(Kin.Dom.1-N-terminal); assay type: binding; settings: 1000 nM; Entrez RPS6KA2; read-out: Percent Control
# T9 construct: RSK3(Kin.Dom.1-N-terminal); purchased Eurofins DiscoverX KINOMEscan
# Source text: as §1
# [2] = target: T10, ABL1(F317I)-nonphosphorylated (Homo sapiens, UniProt P00519, F317I); experiment: KINOMEscan 1 μM, ABL1(F317I)-nonphosphorylated; assay type: binding; settings: 1000 nM; Entrez ABL1; read-out: Percent Control
# T10 construct: purchased Eurofins DiscoverX KINOMEscan
# Source text: as §1
# SBK1 = target: T11, SBK1 (Homo sapiens, UniProt Q52WX2); experiment: DiscoverX KINOMEscan binding assay at 1 μM, SBK1; settings: Compound Concentration 1000 nM, read-out: Percent Control
# T11 construct: purchased Eurofins DiscoverX KINOMEscan
# Source text: as §1
# CDK2 = target: T12, CDK2 (Homo sapiens, UniProt P24941); experiment: KINOMEscan 1 μM, CDK2; assay type: binding; settings: 1000 nM; Entrez CDK2; read-out: Percent Control
# T12 construct: purchased Eurofins DiscoverX KINOMEscan
# Source text: as §1
# JNK2 = target: T13, JNK2 (Homo sapiens, UniProt P45984); experiment: KINOMEscan 1 μM, JNK2; assay type: binding; settings: 1000 nM; Entrez MAPK9; read-out: Percent Control
# T13 construct: purchased Eurofins DiscoverX KINOMEscan
# Source text: as §1
# ACVR1 = target: T14, ACVR1 (Homo sapiens, UniProt Q04771); experiment: KINOMEscan 1 μM, ACVR1; assay type: binding; settings: 1000 nM; Entrez ACVR1; read-out: Percent Control
# T14 construct: purchased Eurofins DiscoverX KINOMEscan
# Source text: as §1
# PFTK1 = target: T15, PFTK1 (Homo sapiens, UniProt O94921); experiment: DiscoverX KINOMEscan binding assay at 1 μM, PFTK1; settings: PFTK1 (CDK14); Compound Concentration 1000 nM; read-out: Percent Control
# T15 construct: purchased Eurofins DiscoverX KINOMEscan
# Source text: as §1
# FLT3(D835Y) = target: T16, FLT3(D835Y) (Homo sapiens, UniProt P36888, D835Y); experiment: KINOMEscan 1 μM, FLT3(D835Y); assay type: binding; settings: 1000 nM; Entrez FLT3; read-out: Percent Control
# T16 construct: purchased Eurofins DiscoverX KINOMEscan
# Source text: as §1
# PRKG2 = target: T17, PRKG2 (Homo sapiens, UniProt Q13237); experiment: KINOMEscan 1 μM, PRKG2; assay type: binding; settings: 1000 nM; Entrez PRKG2; read-out: Percent Control
# T17 construct: purchased Eurofins DiscoverX KINOMEscan
# Source text: as §1
# MAP3K4 = target: T18, MAP3K4 (Homo sapiens, UniProt Q9Y6R4); experiment: KINOMEscan at 1 μM, MAP3K4; assay type: binding; settings: 1000 nM, read-out: Percent Control
# T18 construct: purchased Eurofins DiscoverX KINOMEscan
# Source text: (§2) Supplement cells-12-00287-s001.zip/File S2. KinomeScan data for the CAMKK2 probe and negative control.xlsx, sheet "SGC-CAMKK2-1N" | column: Percent Control
# CIT = target: T19, CIT (Homo sapiens, UniProt O14578); experiment: KINOMEscan at 1 μM, CIT; assay type: binding; settings: 1000 nM, read-out: Percent Control
# T19 construct: purchased Eurofins DiscoverX KINOMEscan
# Source text: as §2
# MAP4K2 = target: T20, MAP4K2 (Homo sapiens, UniProt Q12851); experiment: KINOMEscan at 1 μM, MAP4K2; assay type: binding; settings: 1000 nM, read-out: Percent Control
# T20 construct: purchased Eurofins DiscoverX KINOMEscan
# Source text: as §2
# PIK3CA(E545A) = target: T21, PIK3CA(E545A) (Homo sapiens, UniProt P42336, E545A); experiment: KINOMEscan at 1 μM, PIK3CA(E545A); assay type: binding; settings: 1000 nM, read-out: Percent Control
# T21 construct: purchased Eurofins DiscoverX KINOMEscan
# Source text: as §2
# ERK1 = target: T22, ERK1 (Homo sapiens, UniProt P27361); experiment: KINOMEscan at 1 μM, ERK1; assay type: binding; settings: 1000 nM, read-out: Percent Control
# T22 construct: purchased Eurofins DiscoverX KINOMEscan
# Source text: as §2
# EIF2AK1 = target: T23, EIF2AK1 (Homo sapiens, UniProt Q9BQI3); experiment: KINOMEscan at 1 μM, EIF2AK1; assay type: binding; settings: 1000 nM, read-out: Percent Control
# T23 construct: purchased Eurofins DiscoverX KINOMEscan
# Source text: as §2
# CAMK2B = target: T24, CAMK2B (Homo sapiens, UniProt Q13554); experiment: KINOMEscan at 1 μM, CAMK2B; assay type: binding; settings: 1000 nM, read-out: Percent Control
# T24 construct: purchased Eurofins DiscoverX KINOMEscan
# Source text: as §2
# MEK2 = target: T25, MEK2 (Homo sapiens, UniProt P36507); experiment: KINOMEscan at 1 μM, MEK2; assay type: binding; settings: 1000 nM, read-out: Percent Control
# T25 construct: purchased Eurofins DiscoverX KINOMEscan
# Source text: as §2
# PFTAIRE2 = target: T26, PFTAIRE2 (Homo sapiens, UniProt Q96Q40); experiment: KINOMEscan at 1 μM, PFTAIRE2; assay type: binding; settings: 1000 nM, read-out: Percent Control
# T26 construct: purchased Eurofins DiscoverX KINOMEscan
# Source text: as §2
# PIK3CA(M1043I) = target: T27, PIK3CA(M1043I) (Homo sapiens, UniProt P42336, M1043I); experiment: KINOMEscan binding assay at 1 μM, PIK3CA(M1043I); settings: Compound Concentration 1000 nM; read-out: Percent Control
# T27 construct: purchased Eurofins DiscoverX KINOMEscan
# Source text: as §2
# [3] = target: T28, ABL1(T315I)-nonphosphorylated (Homo sapiens, UniProt P00519, T315I); experiment: KINOMEscan at 1 μM, ABL1(T315I)-nonphosphorylated; assay type: binding; settings: 1000 nM, read-out: Percent Control
# T28 construct: purchased Eurofins DiscoverX KINOMEscan
# Source text: as §2
# CDK4-cyclinD1 = target: T29, CDK4-cyclinD1 (Homo sapiens, UniProt P11802); experiment: KINOMEscan at 1 μM, CDK4-cyclinD1; assay type: binding; settings: 1000 nM, read-out: Percent Control
# T29 construct: purchased Eurofins DiscoverX KINOMEscan
# Source text: as §2
# ASK1 = target: T30, ASK1 (Homo sapiens, UniProt Q99683); experiment: KINOMEscan at 1 μM, ASK1; assay type: binding; settings: 1000 nM, read-out: Percent Control
# T30 construct: purchased Eurofins DiscoverX KINOMEscan
# Source text: as §2
# RET(V804M) = target: T31, RET(V804M) (Homo sapiens, UniProt P07949, V804M); experiment: KINOMEscan binding assay at 1 μM, RET(V804M); settings: Compound Concentration 1000 nM; read-out: Percent Control
# T31 construct: purchased Eurofins DiscoverX KINOMEscan
# Source text: as §2
# CSNK1D = target: T32, CSNK1D (Homo sapiens, UniProt P48730); experiment: KINOMEscan at 1 μM, CSNK1D; assay type: binding; settings: 1000 nM, read-out: Percent Control
# T32 construct: purchased Eurofins DiscoverX KINOMEscan
# Source text: as §2
# T20 sequence (Q12851 whole entry): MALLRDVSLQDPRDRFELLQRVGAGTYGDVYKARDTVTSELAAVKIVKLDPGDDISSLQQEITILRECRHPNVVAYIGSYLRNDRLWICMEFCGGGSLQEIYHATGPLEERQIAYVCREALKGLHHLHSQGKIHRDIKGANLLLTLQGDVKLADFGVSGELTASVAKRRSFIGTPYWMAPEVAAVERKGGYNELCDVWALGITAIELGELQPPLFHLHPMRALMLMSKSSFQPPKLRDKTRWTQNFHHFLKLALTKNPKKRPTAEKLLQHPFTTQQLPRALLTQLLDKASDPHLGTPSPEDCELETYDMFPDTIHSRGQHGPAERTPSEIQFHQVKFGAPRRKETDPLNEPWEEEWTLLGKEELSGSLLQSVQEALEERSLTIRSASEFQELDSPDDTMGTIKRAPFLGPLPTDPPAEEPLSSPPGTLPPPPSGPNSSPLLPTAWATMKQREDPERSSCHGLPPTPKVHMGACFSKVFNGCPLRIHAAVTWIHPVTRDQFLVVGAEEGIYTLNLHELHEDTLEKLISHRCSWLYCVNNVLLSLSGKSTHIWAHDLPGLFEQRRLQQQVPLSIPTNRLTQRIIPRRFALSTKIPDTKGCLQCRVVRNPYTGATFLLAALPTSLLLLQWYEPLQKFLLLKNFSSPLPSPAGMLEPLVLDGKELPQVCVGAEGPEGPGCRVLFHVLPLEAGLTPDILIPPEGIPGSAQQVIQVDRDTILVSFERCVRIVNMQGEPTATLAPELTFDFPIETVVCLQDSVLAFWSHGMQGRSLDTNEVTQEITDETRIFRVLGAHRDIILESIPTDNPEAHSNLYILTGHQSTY
# T21 sequence (P42336 whole entry E545A): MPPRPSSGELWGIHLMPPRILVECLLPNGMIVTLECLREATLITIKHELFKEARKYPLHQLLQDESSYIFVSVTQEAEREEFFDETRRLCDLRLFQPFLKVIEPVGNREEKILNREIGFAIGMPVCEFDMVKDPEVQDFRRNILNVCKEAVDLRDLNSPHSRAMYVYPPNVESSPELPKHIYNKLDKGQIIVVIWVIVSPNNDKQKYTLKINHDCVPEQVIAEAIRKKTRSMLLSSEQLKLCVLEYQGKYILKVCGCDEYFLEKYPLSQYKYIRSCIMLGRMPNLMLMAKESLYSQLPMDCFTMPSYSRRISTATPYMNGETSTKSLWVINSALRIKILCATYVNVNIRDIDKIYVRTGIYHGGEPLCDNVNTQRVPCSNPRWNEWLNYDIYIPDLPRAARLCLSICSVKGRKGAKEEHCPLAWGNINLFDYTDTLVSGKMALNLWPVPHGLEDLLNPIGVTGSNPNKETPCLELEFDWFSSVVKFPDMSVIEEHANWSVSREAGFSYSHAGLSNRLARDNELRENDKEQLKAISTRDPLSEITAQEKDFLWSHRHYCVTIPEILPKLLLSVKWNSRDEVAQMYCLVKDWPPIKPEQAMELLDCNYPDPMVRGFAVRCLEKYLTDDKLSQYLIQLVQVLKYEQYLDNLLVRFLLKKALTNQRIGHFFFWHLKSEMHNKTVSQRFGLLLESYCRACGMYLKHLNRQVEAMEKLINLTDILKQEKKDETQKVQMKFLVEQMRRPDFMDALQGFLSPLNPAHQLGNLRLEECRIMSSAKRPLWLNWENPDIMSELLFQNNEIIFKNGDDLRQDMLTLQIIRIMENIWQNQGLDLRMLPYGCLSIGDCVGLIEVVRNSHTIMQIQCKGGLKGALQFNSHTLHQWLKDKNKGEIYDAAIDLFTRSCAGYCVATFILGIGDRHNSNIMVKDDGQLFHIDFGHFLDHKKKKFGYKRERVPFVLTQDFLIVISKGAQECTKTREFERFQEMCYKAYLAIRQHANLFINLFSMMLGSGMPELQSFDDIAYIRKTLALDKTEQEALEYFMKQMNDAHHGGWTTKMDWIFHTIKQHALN
# T7 sequence (P31751 whole entry): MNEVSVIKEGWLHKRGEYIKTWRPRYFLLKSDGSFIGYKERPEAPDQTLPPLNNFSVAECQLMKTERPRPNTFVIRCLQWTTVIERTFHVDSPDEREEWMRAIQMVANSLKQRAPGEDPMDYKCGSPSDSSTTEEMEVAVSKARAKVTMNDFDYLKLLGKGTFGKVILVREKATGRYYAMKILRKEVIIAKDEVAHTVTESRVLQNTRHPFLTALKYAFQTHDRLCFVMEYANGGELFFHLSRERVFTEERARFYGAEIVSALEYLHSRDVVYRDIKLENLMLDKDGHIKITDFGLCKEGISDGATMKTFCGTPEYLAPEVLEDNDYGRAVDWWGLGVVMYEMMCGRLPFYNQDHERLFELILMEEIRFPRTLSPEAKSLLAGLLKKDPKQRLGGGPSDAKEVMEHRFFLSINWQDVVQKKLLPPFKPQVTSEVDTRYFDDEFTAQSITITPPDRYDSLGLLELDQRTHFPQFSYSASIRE
# T19 sequence (O14578 whole entry): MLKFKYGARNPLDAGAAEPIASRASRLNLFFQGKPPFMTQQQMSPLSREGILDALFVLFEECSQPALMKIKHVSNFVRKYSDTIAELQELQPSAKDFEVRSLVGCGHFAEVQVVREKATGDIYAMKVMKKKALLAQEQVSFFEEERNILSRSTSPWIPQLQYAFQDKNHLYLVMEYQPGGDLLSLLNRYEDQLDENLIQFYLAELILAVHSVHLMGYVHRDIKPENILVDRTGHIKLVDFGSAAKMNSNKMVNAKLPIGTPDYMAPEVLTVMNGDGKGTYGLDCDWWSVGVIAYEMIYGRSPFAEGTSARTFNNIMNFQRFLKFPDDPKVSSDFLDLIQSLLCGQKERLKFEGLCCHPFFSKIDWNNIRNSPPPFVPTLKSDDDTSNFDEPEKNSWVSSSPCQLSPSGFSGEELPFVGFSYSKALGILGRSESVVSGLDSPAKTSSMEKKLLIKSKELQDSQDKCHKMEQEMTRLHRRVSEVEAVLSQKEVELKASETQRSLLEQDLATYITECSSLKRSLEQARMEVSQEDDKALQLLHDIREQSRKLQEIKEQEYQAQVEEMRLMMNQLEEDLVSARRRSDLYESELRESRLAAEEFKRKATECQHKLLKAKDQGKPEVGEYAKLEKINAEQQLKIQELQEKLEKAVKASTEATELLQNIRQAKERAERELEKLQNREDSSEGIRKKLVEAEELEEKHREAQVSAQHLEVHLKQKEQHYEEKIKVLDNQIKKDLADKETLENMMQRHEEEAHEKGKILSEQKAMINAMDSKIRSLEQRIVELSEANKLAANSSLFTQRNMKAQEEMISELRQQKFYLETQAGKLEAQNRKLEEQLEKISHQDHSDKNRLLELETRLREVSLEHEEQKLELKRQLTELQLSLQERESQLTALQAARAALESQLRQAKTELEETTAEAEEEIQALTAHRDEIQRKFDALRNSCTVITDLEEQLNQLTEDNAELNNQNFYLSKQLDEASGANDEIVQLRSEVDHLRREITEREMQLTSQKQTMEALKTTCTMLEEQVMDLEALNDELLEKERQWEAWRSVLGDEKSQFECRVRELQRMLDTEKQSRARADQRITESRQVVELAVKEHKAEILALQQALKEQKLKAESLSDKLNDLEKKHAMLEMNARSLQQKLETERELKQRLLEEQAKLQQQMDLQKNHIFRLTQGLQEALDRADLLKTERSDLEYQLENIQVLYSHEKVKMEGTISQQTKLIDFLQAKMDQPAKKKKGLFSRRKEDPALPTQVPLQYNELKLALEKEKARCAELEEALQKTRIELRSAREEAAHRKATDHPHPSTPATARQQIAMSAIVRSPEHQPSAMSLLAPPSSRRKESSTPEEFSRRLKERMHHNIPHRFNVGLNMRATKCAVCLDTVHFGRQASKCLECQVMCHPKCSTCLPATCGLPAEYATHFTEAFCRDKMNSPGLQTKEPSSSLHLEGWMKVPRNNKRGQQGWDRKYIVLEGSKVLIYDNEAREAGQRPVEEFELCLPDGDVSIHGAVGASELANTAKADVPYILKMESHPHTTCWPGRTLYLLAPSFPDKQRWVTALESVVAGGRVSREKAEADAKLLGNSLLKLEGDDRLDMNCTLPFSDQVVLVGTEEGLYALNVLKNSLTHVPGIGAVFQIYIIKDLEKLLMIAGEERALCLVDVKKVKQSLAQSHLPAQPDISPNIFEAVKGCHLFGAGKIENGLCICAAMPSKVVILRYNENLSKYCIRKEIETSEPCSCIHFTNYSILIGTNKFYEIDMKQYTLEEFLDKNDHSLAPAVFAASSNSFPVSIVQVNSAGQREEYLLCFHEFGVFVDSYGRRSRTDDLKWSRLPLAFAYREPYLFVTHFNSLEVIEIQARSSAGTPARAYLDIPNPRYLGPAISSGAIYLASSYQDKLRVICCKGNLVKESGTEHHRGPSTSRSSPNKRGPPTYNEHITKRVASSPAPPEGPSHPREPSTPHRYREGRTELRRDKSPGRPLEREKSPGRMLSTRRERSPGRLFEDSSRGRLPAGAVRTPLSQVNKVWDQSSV
# T32 sequence (P48730 whole entry): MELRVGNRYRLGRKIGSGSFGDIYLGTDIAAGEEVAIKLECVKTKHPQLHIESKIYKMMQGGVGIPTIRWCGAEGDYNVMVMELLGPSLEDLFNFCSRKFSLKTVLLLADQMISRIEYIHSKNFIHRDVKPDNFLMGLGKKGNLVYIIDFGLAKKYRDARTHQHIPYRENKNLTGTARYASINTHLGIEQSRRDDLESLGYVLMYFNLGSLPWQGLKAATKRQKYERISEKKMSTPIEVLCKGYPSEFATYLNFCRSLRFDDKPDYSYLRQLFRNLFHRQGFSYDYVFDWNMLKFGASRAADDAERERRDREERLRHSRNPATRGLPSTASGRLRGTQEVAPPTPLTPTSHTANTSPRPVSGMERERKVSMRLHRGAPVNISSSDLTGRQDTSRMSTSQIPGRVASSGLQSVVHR
# T27 sequence (P42336 whole entry M1043I): as the sequence (P42336 whole entry E545A) above, with A545E, M1043I counted along it
smiles,measurement,setting,value
Cc1cccc(-c2cnc3occ(-c4ccc(C(=O)O)c(C5CCCC5)c4)c3c2)c1 [SGC-CAMKK2-1 (YL-36)],remaining binding at 1 µM,KIT(V559D),100%
same,remaining binding at 1 µM,DRAK1,100%
same,remaining binding at 1 µM,EPHA1,100%
same,remaining binding at 1 µM,NEK4,100%
same,remaining binding at 1 µM,AKT3,100%
same,remaining binding at 1 µM,"KIT(V559D,T670I)",100%
same,remaining binding at 1 µM,AKT2,100%
same,remaining binding at 1 µM,ASK2,96%
same,remaining binding at 1 µM,[1],86%
same,remaining binding at 1 µM,[2],100%
same,remaining binding at 1 µM,SBK1,100%
same,remaining binding at 1 µM,CDK2,100%
same,remaining binding at 1 µM,JNK2,100%
same,remaining binding at 1 µM,ACVR1,83%
same,remaining binding at 1 µM,PFTK1,100%
same,remaining binding at 1 µM,FLT3(D835Y),89%
same,remaining binding at 1 µM,PRKG2,99%
O=C(O)c1ccc(-c2coc3ncc(-c4ccccc4)cc23)cc1Cl [SGC-CAMKK2-1N (UNC-YL-83)],remaining binding at 1 µM,MAP3K4,68%
same,remaining binding at 1 µM,CIT,87%
same,remaining binding at 1 µM,MAP4K2,77%
same,remaining binding at 1 µM,PIK3CA(E545A),59%
same,remaining binding at 1 µM,ERK1,95%
same,remaining binding at 1 µM,EIF2AK1,42%
same,remaining binding at 1 µM,CAMK2B,69%
same,remaining binding at 1 µM,MEK2,88%
same,remaining binding at 1 µM,PFTAIRE2,76%
same,remaining binding at 1 µM,PIK3CA(M1043I),100%
same,remaining binding at 1 µM,[3],45%
same,remaining binding at 1 µM,CDK4-cyclinD1,70%
same,remaining binding at 1 µM,ASK1,100%
same,remaining binding at 1 µM,RET(V804M),100%
same,remaining binding at 1 µM,CSNK1D,99%
